Laboratory results as given in PMC11255275, “Structural insights into the triple agonism at GLP-1R, GIPR and GCGR manifested by retatrutide” (Cell Discovery, 2024).
Read-outs that look alike come from different tables or passages of the source.

What was measured:
GLP-1R mutants [1] = target: T1, GLP-1R mutants (Homo sapiens, UniProt P43220, E138R); experiment: cAMP accumulation, single-point mutated GLP-1R; format: cell-based; conditions: GLP-1R E138(1.33b)R; HEK-293T, 40 min, TR-FRET; mean ± S.E.M., n at least 3
T1 construct: expressed in transfected cells; host or cells: HEK-293T
T1 sequence (P43220 24-463 E138R): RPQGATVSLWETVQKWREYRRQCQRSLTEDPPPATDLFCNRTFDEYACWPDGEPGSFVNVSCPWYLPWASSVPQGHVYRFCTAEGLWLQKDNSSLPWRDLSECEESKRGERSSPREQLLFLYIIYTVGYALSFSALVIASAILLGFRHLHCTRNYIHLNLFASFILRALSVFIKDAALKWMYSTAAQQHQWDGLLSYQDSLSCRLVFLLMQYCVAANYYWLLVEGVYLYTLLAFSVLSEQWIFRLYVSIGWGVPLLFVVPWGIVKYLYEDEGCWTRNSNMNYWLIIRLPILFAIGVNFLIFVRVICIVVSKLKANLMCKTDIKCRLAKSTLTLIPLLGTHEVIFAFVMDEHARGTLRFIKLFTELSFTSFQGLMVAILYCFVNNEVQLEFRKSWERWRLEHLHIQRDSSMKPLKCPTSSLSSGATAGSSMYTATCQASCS
Protocol: (§1) HEK-293T cells were maintained at 37°C in 5% CO2 incubator and seeded onto 6-well cell […]
(§2) culture plates before transfection. After overnight culture, the cells were transiently transfected […]
(§3) with various constructs using Lipofectamine 2000 transfection reagent (Invitrogen). After 24 h, […]
(§4) the transfected cells were seeded onto 384-microtiter plates at a density of 3,000 cells per well […]
(§5) in stimulation buffer (HBSS supplemented with 5 mM HEPES, 0.1% (w/v) casein and 0.5 mM […]
(§6) 3-isobutyl-1-methylxanthine). Different concentrations of retatrutide in stimulation buffer were […]
(§7) added, and the stimulation lasted for 40 min. The reaction was stopped by addition of cAMP […]
(§8) detection buffer containing Eu-cAMP tracer and ULight-anti-cAMP. Plates were then incubated for […]
(§9) 60 min at RT. Time-resolved FRET signals were measured at 620 nm and 665 nm, respectively, by […]
(§10) an EnVision multilabel plate reader (PerkinElmer). Data were analyzed in GraphPad PRISM 9.5 […]
(§11) and all values were normalized to that of the wild-type (WT).
(§12) Supplementary Fig. 5 Effects of receptor mutation on retatrutide-induced cAMP […]
(§13) accumulation. a-c, Signaling profiles of GLP-1R (a), GIPR (b) and GCGR (c) mutants. cAMP […]
(§14) accumulation was measured in wild-type (WT) and single-point mutated GLP-1R, GIPR or […]
(§15) GCGR expressing HEK-293T cells. cAMP levels were normalized to the maximum response […]
(§16) of the WT and dose-response curves were analyzed using a three-parameter logistic equation.
(§17) Data were generated and graphed as means ± S.E.M. of at least three independent experiments performed in quadruplicate.
(§18) (1 picture or pasted object on this page, not shown here)
(§19) Supplementary Ta b l e S 5 Effects of the ligand-binding pocket residue mutation on retatrutide- […]
(§20) induced cAMP signaling at GLP-1R, GIPR or GCGR. […]
(§21) cAMP levels were normalized to the maximum response of the wild-type (WT) and dose-response […]
(§22) curves were analyzed using a three-parameter logistic equation to obtain pEC50 and Emax values. The […]
(§23) experiments were carried out independently at least three times. Data shown are means ± S.E.M. One- […]
(§24) way ANOVA was used to determine statistical difference. N.D., values that could not be determined due […]
(§25) to incomplete curve fits. *P< 0.05, **P< 0.01, ***P< 0.001 and ****P<0.0001.

GLP-1R mutants [2] = target: T2, GLP-1R mutants (Homo sapiens, UniProt P43220, E364A); experiment: cAMP accumulation, single-point mutated GLP-1R; format: cell-based; conditions: GLP-1R E364(6.53b)A, HEK-293T, 40 min, TR-FRET, mean ± S.E.M., n at least 3
T2 construct: expressed in transfected cells; host or cells: HEK-293T
T2 sequence (P43220 24-463 E364A): as the sequence (P43220 24-463 E138R) above, with R115E, E341A counted along it
Protocol: as §1, §2, §3, §4, §5, §6, §7, §8, §9, §10, §11, §12, §13, §14, §15, §16, §17, §18, §19, §20, §21, §22, §23, §24, §25

GLP-1R mutants [3] = target: T3, GLP-1R mutants (Homo sapiens, UniProt P43220, E387A); experiment: cAMP accumulation, single-point mutated GLP-1R; format: cell-based; conditions: GLP-1R E387(7.42b)A; HEK-293T, 40 min, TR-FRET; mean ± S.E.M., n at least 3
T3 construct: expressed in transfected cells; host or cells: HEK-293T
T3 sequence (P43220 24-463 E387A): as the sequence (P43220 24-463 E138R) above, with R115E, E364A counted along it
Protocol: as §1, §2, §3, §4, §5, §6, §7, §8, §9, §10, §11, §12, §13, §14, §15, §16, §17, §18, §19, §20, §21, §22, §23, §24, §25

GLP-1R mutants [4] = target: T4, GLP-1R mutants (Homo sapiens, UniProt P43220, R299A); experiment: cAMP accumulation, single-point mutated GLP-1R; format: cell-based; conditions: GLP-1R R299(ECL2)A, HEK-293T, 40 min, TR-FRET, mean ± S.E.M., n at least 3
T4 construct: expressed in transfected cells; host or cells: HEK-293T
T4 sequence (P43220 24-463 R299A): as the sequence (P43220 24-463 E138R) above, with R115E, R276A counted along it
Protocol: as §1, §2, §3, §4, §5, §6, §7, §8, §9, §10, §11, §12, §13, §14, §15, §16, §17, §18, §19, §20, §21, §22, §23, §24, §25

GLP-1R mutants [5] = target: T5, GLP-1R mutants (Homo sapiens, UniProt P43220, W214A); experiment: cAMP accumulation, single-point mutated GLP-1R; format: cell-based; conditions: GLP-1R W214(ECL1)A; HEK-293T, 40 min, TR-FRET; mean ± S.E.M., n at least 3
T5 construct: expressed in transfected cells; host or cells: HEK-293T
T5 sequence (P43220 24-463 W214A): as the sequence (P43220 24-463 E138R) above, with R115E, W191A counted along it
Protocol: as §1, §2, §3, §4, §5, §6, §7, §8, §9, §10, §11, §12, §13, §14, §15, §16, §17, §18, §19, §20, §21, §22, §23, §24, §25

GLP-1R mutants [6] = target: T6, GLP-1R mutants (Homo sapiens, UniProt P43220, W39A); experiment: cAMP accumulation, single-point mutated GLP-1R; format: cell-based; conditions: GLP-1R W39(ECD)A, HEK-293T, 40 min, TR-FRET, mean ± S.E.M., n at least 3
T6 construct: expressed in transfected cells; host or cells: HEK-293T
T6 sequence (P43220 24-463 W39A): as the sequence (P43220 24-463 E138R) above, with W16A, R115E counted along it
Protocol: as §1, §2, §3, §4, §5, §6, §7, §8, §9, §10, §11, §12, §13, §14, §15, §16, §17, §18, §19, §20, §21, §22, §23, §24, §25

GLP-1R mutants [7] = target: T7, GLP-1R mutants (Homo sapiens, UniProt P43220, W91A); experiment: cAMP accumulation, single-point mutated GLP-1R; format: cell-based; conditions: GLP-1R W91(ECD)A, HEK-293T, 40 min, TR-FRET, mean ± S.E.M., n at least 3
T7 construct: expressed in transfected cells; host or cells: HEK-293T
T7 sequence (P43220 24-463 W91A): as the sequence (P43220 24-463 E138R) above, with W68A, R115E counted along it
Protocol: as §1, §2, §3, §4, §5, §6, §7, §8, §9, §10, §11, §12, §13, §14, §15, §16, §17, §18, §19, §20, §21, §22, §23, §24, §25

GLP-1R mutants [8] = target: T8, GLP-1R mutants (Homo sapiens, UniProt P43220, Y145Q); experiment: cAMP accumulation, single-point mutated GLP-1R; format: cell-based; conditions: GLP-1R Y145(1.40b)Q, HEK-293T, 40 min, TR-FRET, mean ± S.E.M., n at least 3
T8 construct: expressed in transfected cells; host or cells: HEK-293T
T8 sequence (P43220 24-463 Y145Q): as the sequence (P43220 24-463 E138R) above, with R115E, Y122Q counted along it
Protocol: as §1, §2, §3, §4, §5, §6, §7, §8, §9, §10, §11, §12, §13, §14, §15, §16, §17, §18, §19, §20, §21, §22, §23, §24, §25

GLP-1R mutants [9] = target: T9, GLP-1R mutants (Homo sapiens, UniProt P43220, Y205A); experiment: cAMP accumulation, single-point mutated GLP-1R; format: cell-based; conditions: GLP-1R Y205(2.75b)A, HEK-293T, 40 min, TR-FRET, mean ± S.E.M., n at least 3
T9 construct: expressed in transfected cells; host or cells: HEK-293T
T9 sequence (P43220 24-463 Y205A): as the sequence (P43220 24-463 E138R) above, with R115E, Y182A counted along it
Protocol: as §1, §2, §3, §4, §5, §6, §7, §8, §9, §10, §11, §12, §13, §14, §15, §16, §17, §18, §19, §20, §21, §22, §23, §24, §25

GLP-1R mutants [10] = experiment: cAMP accumulation, single-point mutated GLP-1R; format: cell-based, human; conditions: GLP-1R E138(1.33b)R, relative to WT
Protocol: as §1, §2, §3, §4, §5, §6, §7, §8, §9, §10, §11, §12, §13, §14, §15, §16, §17, §18, §19, §20, §21, §22, §23, §24, §25

GCGR = target: T10, GCGR (Homo sapiens, UniProt P47871); experiment: cAMP accumulation, wild-type GCGR; format: cell-based; conditions: HEK-293T, 40 min, TR-FRET, mean ± S.E.M.
T10 construct: expressed in transfected cells; host or cells: HEK-293T
T10 sequence (P47871 26-477): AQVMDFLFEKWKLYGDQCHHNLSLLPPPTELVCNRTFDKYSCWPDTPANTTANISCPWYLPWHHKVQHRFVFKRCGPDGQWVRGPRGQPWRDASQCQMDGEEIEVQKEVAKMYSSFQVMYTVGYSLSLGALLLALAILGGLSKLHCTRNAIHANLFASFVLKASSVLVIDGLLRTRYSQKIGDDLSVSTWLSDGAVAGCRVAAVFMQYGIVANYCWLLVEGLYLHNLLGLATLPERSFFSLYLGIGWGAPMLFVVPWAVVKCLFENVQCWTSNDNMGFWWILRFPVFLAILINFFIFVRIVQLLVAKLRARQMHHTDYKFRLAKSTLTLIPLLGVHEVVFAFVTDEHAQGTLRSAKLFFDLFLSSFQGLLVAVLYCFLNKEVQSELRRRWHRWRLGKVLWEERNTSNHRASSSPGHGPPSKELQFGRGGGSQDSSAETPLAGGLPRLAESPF
Protocol: as §1, §2, §3, §4, §5, §6, §7, §8, §9, §10
and all values were normalized to that of the wild-type (WT). […]
as §14
of the WT and dose-response curves were analyzed using a three-parameter logistic equation. […]
curves were analyzed using a three-parameter logistic equation to obtain pEC50 and Emax values. […]
as §24

[11] = cited from earlier work; for decrease in body weight (up to): single dose, ref Coskun T et al (supplement ref 17)
Excerpt: For humans, events were mild, such as 50 1 ascending (PMID: 4 months ...

CC[C@H](C)[C@H](NC(=O)[C@H](Cc1ccccc1)NC(=O)[C@H](C)NC(=O)C(C)(C)NC(=O)[C@H](CCC(N)=O)NC(=O)[C@H](C)NC(=O)[C@H](CCCCNC(=O)COCCOCCNC(=O)CC[C@H](NC(=O)CCCCCCCCCCCCCCCCCCC(=O)O)C(=O)O)NC(=O)[C@H](CCCCN)NC(=O)[C@H](CC(=O)O)NC(=O)[C@H](CC(C)C)NC(=O)[C@](C)(CC(C)C)NC(=O)[C@@H](NC(=O)[C@H](CO)NC(=O)[C@H](Cc1ccc(O)cc1)NC(=O)[C@H](CC(=O)O)NC(=O)[C@H](CO)NC(=O)[C@@H](NC(=O)[C@H](Cc1ccccc1)NC(=O)[C@@H](NC(=O)CNC(=O)[C@H](CCC(N)=O)NC(=O)C(C)(C)NC(=O)[C@@H](N)Cc1ccc(O)cc1)[C@@H](C)O)[C@@H](C)O)[C@@H](C)CC)C(=O)N[C@@H](CCC(=O)O)C(=O)N[C@@H](Cc1ccc(O)cc1)C(=O)N[C@@H](CC(C)C)C(=O)N[C@@H](CC(C)C)C(=O)N[C@@H](CCC(=O)O)C(=O)NCC(=O)NCC(=O)N1CCC[C@H]1C(=O)N[C@@H](CO)C(=O)N[C@@H](CO)C(=O)NCC(=O)N[C@@H](C)C(=O)N1CCC[C@H]1C(=O)N1CCC[C@H]1C(=O)N1CCC[C@H]1C(=O)N[C@@H](CO)C(N)=O [retatrutide]
EC50 (GLP-1R mutants [1]): 0.00355 nM
Emax ± S.E.M. (% WT) (GLP-1R mutants [1]): 100.84 ± 3.40 % WT
Emax ± S.E.M. (% WT) (GLP-1R mutants [2]): 98.84 ± 4.77 % WT
EC50 (GLP-1R mutants [2]; ***P < 0.001): 0.0407 nM
EC50 (GLP-1R mutants [3]): 0.00933 nM
Emax ± S.E.M. (% WT) (GLP-1R mutants [3]): 100.40 ± 3.44 % WT
Emax ± S.E.M. (% WT) (GLP-1R mutants [4]): 101.97 ± 3.92 % WT
EC50 (GLP-1R mutants [4]; ***P < 0.001): 0.0417 nM
EC50 (GLP-1R mutants [5]): 0.00562 nM
Emax ± S.E.M. (% WT) (GLP-1R mutants [5]): 100.98 ± 3.27 % WT
Emax ± S.E.M. (% WT) (GLP-1R mutants [6]): 101.39 ± 3.58 % WT
EC50 (GLP-1R mutants [6]; **P < 0.01): 0.0389 nM
Emax ± S.E.M. (% WT) (GLP-1R mutants [7]): 102.36 ± 4.73 % WT
EC50 (GLP-1R mutants [7]; ****P < 0.0001): 0.0832 nM
EC50 (GLP-1R mutants [8]; ****P < 0.0001): 0.355 nM
Emax ± S.E.M. (% WT) (GLP-1R mutants [8]; ***P < 0.001): 73.89 ± 5.95 % WT
Emax ± S.E.M. (% WT) (GLP-1R mutants [9]): 101.35 ± 4.70 % WT
EC50 (GLP-1R mutants [9]; **P < 0.01): 0.0389 nM
change of retatrutide potency by mutation (GLP-1R mutants [10]): modestly increased
EC50 (GCGR; GCGR WT, at least 3 independent experiments in quadruplicate): 0.00708 nM
Emax ± S.E.M. (% WT) (GCGR; n at least 3): 100.00 ± 1.46 % WT
body weight reduction ([11]; 3 mg group, ref Urva S et al (supplement ref 18)): –4.71 kg
decrease in body weight (up to) ([11]; 4.5 mg): –2.93 kg
decrease in body weight (up to) ([11]; 6 mg): –3.52 kg
body weight reduction ([11]; 3/6 mg group, ref Urva S et al (supplement ref 18)): –7.83 kg
fasting and postprandial plasma glucose and HbA1c ([11]; compared to placebo, ref Urva S et al (supplement ref 18)): clinically decreases
severity of most treatment-related adverse events ([11]; human, in vivo): mild
glycemic control ([11]; ref Urva S et al (supplement ref 18)): showed glycemic control efficacy
